Experimental data: PMC7717600, “Novel [(N-alkyl-3-indolylmethylene)hydrazono]oxindoles arrest cell cycle and induce cell apoptosis by inhibiting CDK2 and Bcl-2: synthesis, biological evaluation and in silico studies” (Journal of Enzyme Inhibition and Medicinal Chemistry, 2020)
Like-named read-outs stand apart in the source and are kept apart here.

How the values were obtained:
[1] = tested on: SNB-75; settings: for TGI: SNB-75
[2] = tested on: BT-549; settings: for TGI: BT-549
[3] = tested on: SW-620; settings: for TGI: SW-620
[4] = tested on: COLO 205; assay: NCI SRB screening; type: cell-based, human
[5] = tested on: NCI-H322M; assay: NCI SRB screening
[6] = tested on: SK-MEL-5; settings: for TGI: SK-MEL-5
[7] = tested on: HT29; settings: for TGI: HT29
[8] = tested on: MDA-MB-231; assay: SRB anti-proliferative assay; type: cell-based; settings: Homo sapiens; MDA-MB-231, SRB, mean ± SE of 3
Procedure: (§1) All the newly prepared target conjugates (7, 8a–c, 9 and 10a–e) were investigated for the prospective growth inhibitory actions against three different cancer cell lines viz.; A-549, MDA-MB-231, and HCT-116, using the sulforhodamine B colorimetric (SRB) assay. Staurosporine, a clinically used antitumor drug, was co-assayed as a reference agent for the experiment.
(§2) Examination of the cytotoxic activity for the target conjugates was carried out in accordance with the SRB colorimetric assay protocol, as described previously.
(§3) In vitro anti-proliferative activity assay
(§4) Cells at a concentration of 0.50 x
(§5) Sulfo-Rhodamine-B stain (SRB) assay.
(§6) cell to the wall of the plate.
(§7) wells were prepared for each individual dose).
(§8) Unbound dye was removed by four

[9] = tested on: HCT-116; assay: SRB anti-proliferative assay; type: cell-based; settings: Homo sapiens; HCT-116, SRB, mean ± SE of 3
Procedure: as §1, §2, §3, §4, §5, §6, §7, §8

[10] = tested on: UACC-62; settings: for TGI: UACC-62
[11] = tested on: UACC-257; settings: for TGI: UACC-257
[12] = tested on: K-562; settings: for TGI: K-562
[13] = tested on: OVCAR-3; settings: for TGI: OVCAR-3
[14] = tested on: PC-3; assay: NCI SRB screening; type: cell-based, human
[15] = tested on: MDA-MB-468; settings: for TGI: MDA-MB-468
[16] = tested on: RPMI-8226; settings: for TGI: RPMI-8226
[17] = tested on: KM12; settings: for TGI: KM12
[18] = tested on: OVCAR-5; settings: for TGI: OVCAR-5
[19] = tested on: HCT-15; settings: for TGI: HCT-15
[20] = tested on: MDA-MB-435; assay: NCI SRB screening; type: cell-based
[21] = tested on: MDA-MB-231/ATCC
[22] = tested on: NCI-H522; settings: for TGI: NCI-H522

Which results are given for `CCCn1cc(C=NN=C2C(=O)Nc3ccc(C)cc32)c2ccccc21` [Compound 8a]?
TGI [1]: 46.0 µM; GI % ([1]; SNB-75, 10 μM): 15%; Growth Percent ([1]; SNB-75, 1.00E-5 Molar): 85.63%; TGI ([1]; listed as D - 795311 / 1): 4.60E-5 Molar; TGI [2]: 6.33 µM; GI % ([2]; BT-549, 10 μM): 37%; Growth Percent ([2]; BT-549, 1.00E-5 Molar): 63.53%; TGI ([2]; listed as D - 795311 / 1): 6.33E-6 Molar; TGI [3]: 35.3 µM; GI % ([3]; SW-620, 10 μM): 64%; Growth Percent ([3]; SW-620, 1.00E-5 Molar): 36.69%; TGI ([3]; listed as D - 795311 / 1): 3.53E-5 Molar; TGI ([4]; COLO 205): 3.06 µM; GI % ([4]; COLO 205, 10 μM): 116%; Growth Percent ([4]; COLO 205, 1.00E-5 Molar): -16.20%; TGI ([4]; COLO 205, listed as D - 795311 / 1): 3.06E-6 Molar; GI50 ([4]; Homo sapiens, COLO 205): 1.25 µM; TGI [5]: >100 µM; GI % ([5]; 10 μM): 53%; Growth Percent ([5]; 1.00E-5 Molar): 47.76%; GI50 ([5]; Homo sapiens): 3.42 µM; CC50 ([5]; Homo sapiens, read-out: LC50): > 100 µM; TGI ([5]; listed as D - 795311 / 1): > 1.00E-4 Molar; TGI [6]: 13.50 µM; GI % ([6]; SK-MEL-5, 10 μM): 51%; Growth Percent ([6]; SK-MEL-5, 1.00E-5 Molar): 49.07%; TGI ([6]; listed as D - 795311 / 1): 1.35E-5 Molar; CC50 ([6]; human, 48 h): 39 µM; TGI [7]: >100 µM; GI % ([7]; HT29, 10 μM): 83%; Growth Percent ([7]; HT29, 1.00E-5 Molar): 17.08%; TGI ([7]; listed as D - 795311 / 1): > 1.00E-4 Molar; IC50 [8]: 4.7 ± 0.28 µM; IC50 [9]: 2.6 ± 0.17 µM; TGI [10]: 12.10 µM; GI % ([10]; UACC-62, 10 μM): 60%; Growth Percent ([10]; UACC-62, 1.00E-5 Molar): 40.39%; TGI ([10]; listed as D - 795311 / 1): 1.21E-5 Molar; TGI [11]: 66.60 µM; GI % ([11]; UACC-257, 10 μM): 41%; Growth Percent ([11]; UACC-257, 1.00E-5 Molar): 58.80%; TGI ([11]; listed as D - 795311 / 1): 6.66E-5 Molar; TGI [12]: 20.5 µM; GI % ([12]; K-562, 10 μM): 83%; Growth Percent ([12]; K-562, 1.00E-5 Molar): 17.61%; TGI ([12]; listed as D - 795311 / 1): 2.05E-5 Molar; TGI [13]: 5.11 µM; GI % ([13]; OVCAR-3, 10 μM): 98%; Growth Percent ([13]; OVCAR-3, 1.00E-5 Molar): 2.10%; TGI ([13]; listed as D - 795311 / 1): 5.11E-6 Molar; GI50 ([14]; Homo sapiens, PC-3): 1.83 µM; TGI ([14]; PC-3): 5.17 µM; GI % ([14]; PC-3, 10 μM): 82%; Growth Percent ([14]; PC-3, 1.00E-5 Molar): 17.96%; TGI ([14]; PC-3, listed as D - 795311 / 1): 5.17E-6 Molar; TGI [15]: 5.78 µM; GI % ([15]; MDA-MB-468, 10 μM): 75%; Growth Percent ([15]; MDA-MB-468, 1.00E-5 Molar): 25.19%; TGI ([15]; listed as D - 795311 / 1): 5.78E-6 Molar; TGI [16]: 3.96 µM; GI % ([16]; RPMI-8226, 10 μM): 125%; Growth Percent ([16]; RPMI-8226, 1.00E-5 Molar): -24.86%; TGI ([16]; listed as D - 795311 / 1): 3.96E-6 Molar; TGI [17]: 19.7 µM; GI % ([17]; KM12, 10 μM): 40%; Growth Percent ([17]; KM12, 1.00E-5 Molar): 59.92%; TGI ([17]; listed as D - 795311 / 1): 1.97E-5 Molar; TGI [18]: 25.8 µM; GI % ([18]; OVCAR-5, 10 μM): 16%; Growth Percent ([18]; OVCAR-5, 1.00E-5 Molar): 84.60%; TGI ([18]; listed as D - 795311 / 1): 2.58E-5 Molar; TGI [19]: 42.2 µM; GI % ([19]; HCT-15, 10 μM): 77%; Growth Percent ([19]; HCT-15, 1.00E-5 Molar): 23.04%; TGI ([19]; listed as D - 795311 / 1): 4.22E-5 Molar; GI50 ([20]; Homo sapiens, MDA-MB-435): 1.5 µM; TGI ([20]; MDA-MB-435): 2.96 µM; GI % ([20]; MDA-MB-435, 10 μM): 127%; Growth Percent ([20]; MDA-MB-435, 1.00E-5 Molar): -26.64%; TGI ([20]; MDA-MB-435, listed as D - 795311 / 1): 2.96E-6 Molar; GI % ([21]; MDA-MB-231, 10 μM): 66%; TGI ([21]; MDA-MB-231/ATCC): 7.40 µM; Growth Percent ([21]; MDA-MB-231/ATCC, 1.00E-5 Molar): 34.35%; TGI ([21]; MDA-MB-231/ATCC, listed as D - 795311 / 1): 7.40E-6 Molar; TGI [22]: 6.59 µM; GI % ([22]; NCI-H522, 10 μM): 86%; Growth Percent ([22]; NCI-H522, 1.00E-5 Molar): 13.81%; TGI ([22]; listed as D - 795311 / 1): 6.59E-6 Molar
